Data as given in ChEMBL document CHEMBL1201862, “PubChem BioAssay data set” (2004).
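Where inhibition never reached the appropriate level, the endpoint shown equals the highest concentration tested. Otherwise, values were interpolated linearly from a five-concentration, 48-hour dose response in 96-well plates. GI50 = concentration required for 50% inhibition of growth.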 Active and inactive are the calls of the source. Rule as the data show it: active = GI50 up to about 1.1 µM and inactive = higher.

Tests used:
Assay in all cases: NCI-60 cell line screen, 48 h
786-0 = test system: 786-0
A498 = test system: A498
A549 = test system: A549
ACHN = test system: ACHN
CAKI-1 = test system: CAKI-1
COLO 205 = test system: COLO 205
DU-145 = test system: DU-145
HCT-116 = test system: HCT-116
HCT-15 = test system: HCT-15
HL-60 = test system: HL-60
HOP-62 = test system: HOP-62
HOP-92 = test system: HOP-92
HT-29 = test system: HT-29
Hs-578T = test system: Hs-578T
IGROV-1 = test system: IGROV-1
K562 = test system: K562
KM12 = test system: KM12
M14 = test system: M14
MCF7 = test system: MCF7
MDA-MB-231 = test system: MDA-MB-231
MDA-MB-435 = test system: MDA-MB-435
MOLT-4 = test system: MOLT-4
Malme-3M = test system: Malme-3M
NCI-H226 = test system: NCI-H226
NCI-H23 = test system: NCI-H23
NCI-H460 = test system: NCI-H460
NCI-H522 = test system: NCI-H522
NCI/ADR-RES = test system: NCI/ADR-RES
OVCAR-3 = test system: OVCAR-3
OVCAR-4 = test system: OVCAR-4
OVCAR-5 = test system: OVCAR-5
OVCAR-8 = test system: OVCAR-8
PC-3 = test system: PC-3
RPMI-8226 = test system: RPMI-8226
RXF 393 = test system: RXF 393
SF-268 = test system: SF-268
SF-295 = test system: SF-295
SF-539 = test system: SF-539
SK-MEL-28 = test system: SK-MEL-28
SK-MEL-2 = test system: SK-MEL-2
SK-MEL-5 = test system: SK-MEL-5
SK-OV-3 = test system: SK-OV-3
SN12C = test system: SN12C
SNB-19 = test system: SNB-19
SNB-75 = test system: SNB-75
SR = test system: SR
SW-620 = test system: SW-620
T47D = test system: T47D
TK-10 = test system: TK-10
U-251 = test system: U-251
UACC-257 = test system: UACC-257
UACC-62 = test system: UACC-62
UO-31 = test system: UO-31
BT-549 = test system: BT-549
CCRF-CEM = test system: CCRF-CEM
EKVX = test system: EKVX
HCC 2998 = test system: HCC 2998
LOX IMVI = test system: LOX IMVI
MDA-N = test system: MDA-N

Measured: GI50

CC(=O)Oc1cc(/C=C/c2ccc(O)cc2)cc(OC(C)=O)c1
inactive: 786-0 37.5 µM | A498 25.4 µM | A549 24.8 µM | ACHN 9.59 µM | CAKI-1 35.7 µM | COLO 205 > 100 µM | DU-145 27.2 µM | HCT-116 35.6 µM | HL-60 18.8 µM | HOP-62 48.2 µM | HOP-92 25 µM | HT-29 19.3 µM | Hs-578T 58.5 µM | IGROV-1 64.9 µM | K562 20.7 µM | KM12 24.1 µM | M14 64.6 µM | MCF7 40 µM | MDA-MB-231 25.5 µM | MDA-MB-435 28.1 µM | MOLT-4 16.8 µM | Malme-3M 17.7 µM | NCI-H226 24.7 µM | NCI-H23 11.7 µM | NCI-H460 33.9 µM | NCI-H522 26 µM | NCI/ADR-RES 16.3 µM | OVCAR-3 48 µM | OVCAR-4 18.3 µM | OVCAR-5 46 µM | OVCAR-8 35.8 µM | PC-3 21.5 µM | RPMI-8226 4.7 µM | RXF 393 58.1 µM | SF-268 43.2 µM | SF-295 28.8 µM | SF-539 12.8 µM | SK-MEL-28 66.5 µM | SK-MEL-2 63.5 µM | SK-MEL-5 14.5 µM | SK-OV-3 > 100 µM | SN12C 19 µM | SNB-19 55.8 µM | SNB-75 22.1 µM | SR 17.3 µM | SW-620 26.1 µM | T47D 51.3 µM | TK-10 24.9 µM | U-251 29.9 µM | UACC-257 30.9 µM | UACC-62 18.2 µM | UO-31 36.4 µM
26.5 µM: HCT-15

Cc1cc(C)c(/C=C2\C(=O)Nc3ccccc32)[nH]1 [SEMAXANIB]
34.8 µM: HCT-15
inactive: 786-0 > 100 µM | A498 > 100 µM | A549 > 65.3 µM | ACHN 66.2 µM | BT-549 > 100 µM | CAKI-1 > 59.2 µM | CCRF-CEM > 100 µM | COLO 205 > 100 µM | DU-145 > 83 µM | EKVX 2.81 µM | HCC 2998 38.8 µM | HCT-116 72.9 µM | HL-60 7.28 µM | HOP-62 > 82.2 µM | HOP-92 48.3 µM | HT-29 35.6 µM | K562 > 100 µM | LOX IMVI > 100 µM | M14 69 µM | MCF7 83.9 µM | MDA-MB-231 > 62.1 µM | MDA-MB-435 > 96.4 µM | MDA-N > 95.9 µM | MOLT-4 > 78.2 µM | Malme-3M > 58.5 µM | NCI-H226 1.22 µM | NCI-H23 7.96 µM | NCI-H460 > 57.8 µM | NCI-H522 > 49.9 µM | NCI/ADR-RES > 100 µM | OVCAR-3 > 100 µM | OVCAR-4 52.5 µM | OVCAR-5 > 69 µM | OVCAR-8 > 49.5 µM | PC-3 > 100 µM | RPMI-8226 > 100 µM | RXF 393 > 100 µM | SF-268 > 100 µM | SF-295 > 100 µM | SF-539 > 100 µM | SK-MEL-28 > 100 µM | SK-MEL-2 > 75.9 µM | SK-MEL-5 > 90.8 µM | SK-OV-3 > 66.7 µM | SN12C > 100 µM | SNB-19 > 100 µM | SR 17.9 µM | SW-620 > 87.7 µM | T47D > 100 µM | TK-10 > 100 µM | U-251 > 100 µM | UACC-257 > 100 µM | UACC-62 > 100 µM | UO-31 34.5 µM
active: KM12 0.998 µM | SNB-75 0.906 µM
